Experimental data as given in the supplement of paper PMC10307832.

How the values were obtained:
Assay in all cases: relative viability (nuclei count vs DMSO), 5 days (fraction); higher = more cells survive
Seliciclib + Dasatinib = compound: CC[C@H](CO)Nc1nc(NCc2ccccc2)c2ncn(C(C)C)c2n1 [Seliciclib] + Cc1nc(Nc2ncc(C(=O)Nc3c(C)cccc3Cl)s2)cc(N2CCN(CCO)CC2)n1 [Dasatinib] (partner 0.075 µM)
Procedure, shortened: (§1)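 Each reported value is a median over duplicate plates. It expresses relative viability: treated-well nuclei count divided by vehicle-well nuclei count. Lung cancer cell lines in 1536-well plates were dosed by pin tool a day after seeding, alone with one drug or with a fixed anchor-drug dose plus five library-drug doses (not always all listed) in √10 steps, and nuclei were counted after 5 days.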

Seliciclib + Luminespib = compound: CC[C@H](CO)Nc1nc(NCc2ccccc2)c2ncn(C(C)C)c2n1 [Seliciclib] + CCNC(=O)c1noc(-c2cc(C(C)C)c(O)cc2O)c1-c1ccc(CN2CCOCC2)cc1 [Luminespib] (partner 0.01 µM)
Procedure, shortened: as §1

Seliciclib + Bortezomib = compound: CC[C@H](CO)Nc1nc(NCc2ccccc2)c2ncn(C(C)C)c2n1 [Seliciclib] + CC(C)C[C@H](NC(=O)[C@H](Cc1ccccc1)NC(=O)c1cnccn1)B(O)O [Bortezomib] (partner 0.002 µM)
Procedure, shortened: as §1

Seliciclib + Navitoclax = compound: CC[C@H](CO)Nc1nc(NCc2ccccc2)c2ncn(C(C)C)c2n1 [Seliciclib] + CC1(C)CCC(c2ccc(Cl)cc2)=C(CN2CCN(c3ccc(C(=O)NS(=O)(=O)c4ccc(N[C@H](CCN5CCOCC5)CSc5ccccc5)c(S(=O)(=O)C(F)(F)F)c4)cc3)CC2)C1 [Navitoclax] (partner 0.5 µM)
Procedure, shortened: as §1

| Cell Line | relative viability (Seliciclib + Dasatinib; first compound 0.08 µM) | relative viability (Seliciclib + Dasatinib; first compound 0.253 µM) | relative viability (Seliciclib + Dasatinib; first compound 0.8 µM) | relative viability (Seliciclib + Dasatinib; first compound 2.53 µM) | relative viability (Seliciclib + Dasatinib; first compound 8 µM) | relative viability (Seliciclib + Luminespib; first compound 0.08 µM) | relative viability (Seliciclib + Luminespib; first compound 0.8 µM) | relative viability (Seliciclib + Luminespib; first compound 2.53 µM) | relative viability (Seliciclib + Luminespib; first compound 8 µM) | relative viability (Seliciclib + Bortezomib; first compound 0.08 µM) | relative viability (Seliciclib + Bortezomib; first compound 0.253 µM) | relative viability (Seliciclib + Bortezomib; first compound 0.8 µM) | relative viability (Seliciclib + Bortezomib; first compound 2.53 µM) | relative viability (Seliciclib + Bortezomib; first compound 8 µM) | relative viability (Seliciclib + Navitoclax; first compound 0.08 µM) | relative viability (Seliciclib + Navitoclax; first compound 0.253 µM) | relative viability (Seliciclib + Navitoclax; first compound 0.8 µM) | relative viability (Seliciclib + Navitoclax; first compound 2.53 µM) | relative viability (Seliciclib + Navitoclax; first compound 8 µM) | relative viability (Seliciclib + Luminespib; first compound 0.253 µM) |
| --- | --- | --- | --- | --- | --- | --- | --- | --- | --- | --- | --- | --- | --- | --- | --- | --- | --- | --- | --- | --- |
| PC-14 | 0.288 | 0.396 | 0.269 | 0.215 | 0.23 | 0.179 | 0.114 | 0.135 | 0.203 | 0.832 | 0.836 | 0.877 | 0.846 | 0.701 | 0.988 | 1.04 | 0.959 | 1.09 | 0.767 | – |
| RERF-LC-KJ | 0.908 | 0.841 | 0.902 | 0.627 | 0.617 | 1.29 | 1.21 | 1.28 | 0.859 | 1.04 | 1.02 | 1.09 | 1.14 | 1.07 | 0.759 | 0.673 | 0.812 | 0.804 | 0.651 | 1.07 |
| SK-LU-1 | 0.173 | 0.184 | 0.183 | 0.142 | 0.141 | 0.204 | 0.207 | 0.187 | 0.21 | 1.07 | 1.23 | 1.3 | 1.08 | 0.771 | 0.866 | 0.973 | 0.575 | 0.978 | 0.627 | 0.209 |
| SW 1573 | 0.608 | 0.525 | 0.524 | 0.35 | 0.301 | 0.727 | 0.219 | 0.197 | 0.243 | 0.923 | 0.876 | 1.02 | 1.02 | 0.868 | 1.09 | 0.732 | 0.901 | 0.86 | 0.655 | 0.431 |
| UMC-11 | 0.517 | 0.52 | 0.491 | 0.507 | 0.458 | 0.963 | 1.09 | 1.06 | 0.829 | 0.715 | 0.932 | 0.831 | 0.827 | 0.529 | 0.316 | 0.279 | 0.313 | 0.29 | 0.25 | 0.78 |
